Results published in patent US4122202A, “Amino-3H-isobenzofuranones N-substitutes and their therapeutic application” (Societe Cortial, priority 1975, dated 1978).
Like-named read-outs stand apart in the source and are kept apart here.

Columns and labels:
rats [1] = test: Anti-inflammatory activity: carragenic test (carragenine-induced edema of the hind leg); format: in vivo, male rats; conditions: Rattus norvegicus, oral, read-out: ED 50
Procedure: All products were administered in gummy julep except No. 1 and No. 13 which were administered in suspension in Tween. The anti-inflammatory activity was determined by the carragenic test with male rats. Inflammation was induced by the injection of 0.1 ml of a 0.5% suspension of carragenine in a physiological serum into the muscular fasciculus of the metatarsal region of the hind leg of the animal. The substance to be tested was orally administered simultaneously with the carragenine. The edema was measured by phethysmography 1, 2, 3, 4, 5 and 6 hours after the administration of the carragenine.
**50 mg/kg No. 13 which were administered in suspension in Tween.

[2] = Oral toxicity in mice (LDO, LD50); format: in vivo; conditions: mouse, in vivo, gummy julep (No. 1 and 13 in Tween), 2 weeks observation
Procedure: This toxicity is estimated by the calculation of the lethal dose of 50 (LD 50) which determines the fatal dose of the substance for 50% of the animals tested. This determination was effected in accordance with a modification of the method by Litchfield and Wilcoxon (J. Pharmacol. Exp. Therap. 1949, 96, 99-113).
Swiss mice without specific pathogenic organisms were kept in air conditioned rooms 24 to 48 hours before the start of the tests. They were divided into batches of 5.male. and 5.female.. With the animals unfed for 24 hours, the substances were intragastically administered in suspension in 2% Tween 80 or in 6% gummy julep in a volume equivalent to 0.1 ml per 10 g of the weight of the animal.
They remained under observation for two weeks before being killed and subjected to an autopsy.
(§1) All products were administered in gummy julep except No. 1 and No. 13 which were administered in Tween. The analgesic activity were determined in mice by utilizing as a nociceptive agent, phenylbenzoquinone (PBQ) (modification of the method by Siegmund and co-workers Proc. Soc. Exp. Biol. Med. 1957, 95, 729-31). The process consists of seeking a possible protection for the mouse vis-a-vis abdominal twisting and stretching of the hind legs induced by the parental injection of PBQ. 25 minutes after having orally administered the products to be tested in suspension in 2% Tween 80 or in 6% gummy julep, the PBQ solution was injected and the mice were observed after 5 minutes during the following 5 minutes. For certain products, AD 50 is presented as a measure of activity.

rats [3] = test: Ulcerous activity (modified method of Colot); format: in vivo, female EOPS rats; conditions: 83 mg/kg oral daily
Procedure: Ulcerous activity was determined according to a modification of the method by Colot (Technical notions of general pharmacology, 1972) in the case of femal EOPS rats of approximately 150 g. The animals were left without absolutely any food, while the test products were orally administered on a daily basis in suspension in 2% Tween at a volume of 0.5 ml/100 g. The animals were killed under chloroform and the stomachs were removed. Ulcerous activity was established by means of an index taking into account the degree of ulceration and the percentage of animals effected.
In the table given below, a comparison is shown between the results obtained with niflumic acid and product No. 1.

mice = test: Analgesic activity: protection against abdominal twisting induced by phenylbenzoquinone (PBQ); format: in vivo; conditions: Mus musculus, oral, read-out: AD 50 (the source's name)
Procedure: as §1, with “activity. […]” for “activity.”

## O=C(O)c1cccnc1Nc1cccc(C(F)(F)F)c1 [Niflumic acid]
Rats [1]; 2H
  ED50: 34 mg/kg
Rats [1]; 4H
  ED50: 125 mg/kg
[2]
  LD50 at 336 h: ~350 mg/kg
Rats [3]; 1 day
  IA: Acute ulceration index: 8
  IC: Ulceration index on the way of cicatrization: 380
  IT: Total index: 388
Rats [3]; 3 days
  IA: Acute ulceration index: 16
  IC: Ulceration index on the way of cicatrization: 206
  IT: Total index: 222
mice
  ED50: 17 mg/kg
